“Also recorded” adds a separate entry of the source.
Tested on: small bowel of mice after ileocecal resection (ICR)
Test: Histologic markers of adaptation (villus height, crypt depth, bowel circumference, intestinal length) after ICR
Type: in vivo, mouse
Settings: for crypt depth, median / intestinal length (corrected), median / small bowel circumference, median / villus height, median: 2′-FL supplemented ICR subgroup, interquartile range in brackets
Experimental: At the time of resection, tissue was obtained to prepare for histologic examination (FIG. 12). No differences in measurements of villus height, crypt depth, and bowel circumference were found at the time of resection. […] Crypts of both post-operative control and 2′ FL supplemented groups were deeper than those of pre-operative tissue. […] Only weights were obtained from non-operated control animals. Resected intestine from operated animals was measured for length then the site of small bowel transection was processed for small bowel contents, histology, and RNA. At the time of experimental completion, small bowel immediately proximal to the site of anastomosis was also harvested for small bowel contents, histology, and RNA from the operated group. Small bowel tissue samples for histology were cut in the longitudinal and transverse section, fixed with 4% paraformaldehyde, mounted in paraffin, and stained with hemotoxylin and eosin. Villous height, crypt depth, and bowel circumference were measured in a blinded manor. At least 10 well-oriented villus and crypt domains were assessed for each sample and two samples were averaged per mouse. The serosal circumference was measured twice per sample with two samples per mouse. The average value per mouse was determined. Measurements were performed using the Nikon Ti-Eclipse with NIS Element Advanced Research version 4.20 (Nikon Inc, NY). […] Intestinal length was compared across groups using the Wilcoxon rank-sum test as values were not normally distributed. Histologic count data was averaged per mouse across two samples and compared by the Wilcoxon rank-sum test. Weight data was analyzed using Stata version 13.0 (StataCorp LP, TX). Remaining morphometric and histologic data were analyzed using GraphPad Prism version 5 (GraphPad Software Inc, CA).

Q: `C[C@@H]1O[C@@H](O[C@H]2[C@H](O[C@H]3[C@H](O)[C@@H](O)C(O)O[C@@H]3CO)O[C@H](CO)[C@H](O)[C@@H]2O)[C@@H](O)[C@H](O)[C@@H]1O` (some centres unmarked) [2′-FL, 2′-fucosyllactose] was tested. Which “crypt depth, median” value (postoperative day 21) did it give?
A: 89 μm

Q: What about the “intestinal length (corrected), median” value (postoperative day 21) of the same molecule?
A: 35.5 cm

Q: What about the “small bowel circumference, median” value (postoperative day 21) of the same molecule?
A: 7,133 μm

Q: What about the “villus height, median” value (postoperative day 21) of the same molecule?
A: 346 μm

Q: And the “crypt depth, median” value (postoperative day 56)?
A: 106 μm

Q: And the “intestinal length (corrected), median” value (postoperative day 56)?
A: 38.5 cm

Q: What about the “small bowel circumference, median” value (postoperative day 56) of the same molecule?
A: 9,671 μm

Q: What about the “villus height, median” value (postoperative day 56) of the same molecule?
A: 405 μm

Q: And the “histologic markers of adaptation (crypt depth, villus height, bowel circumference) compared to control” value (point of weight divergence, 21 days post-ICR)?
A: did not alter

Q: And the “crypt depth compared to control ICR” value (postoperative day 21)?
A: no difference

Q: And the “villus height compared to control ICR” value (postoperative day 21)?
A: no difference

Q: What about the “intestinal length compared to control ICR” value (postoperative day 21 and day 56) of the same molecule?
A: no difference

Q: What about the “villus height compared to control ICR” value (postoperative day 56) of the same molecule?
A: appeared longer; also recorded: trended toward a greater height

Q: And the “crypt depth compared to control ICR” value (postoperative day 56 (8 weeks))?
A: increased; also recorded: significantly deeper

Q: What about the “crypt depth compared to control ICR” value (postoperative day 56 (8 weeks), listed as 2′ Fl) of the same molecule?
A: significantly greater

Q: And the “crypt depth compared to control ICR” value (postoperative day 56 (8 weeks), listed as 2′FL)?
A: significantly greater

Q: What about the “bowel circumference compared to control ICR” value (postoperative day 56 (Example 2)) of the same molecule?
A: no significant difference

Q: What about the “villus height compared to control ICR” value (postoperative day 56, listed as 2′-Fl) of the same molecule?
A: appeared longer

Q: And the “duration of the acute histologic response to ICR compared to control” value (postoperative day 56 plotted alongside day 21)?
A: sustains the acute histologic response over a longer time period; also recorded: sustained the acute increases

Q: What about the “small bowel circumference compared to control ICR” value (postoperative days 21 or 56) of the same molecule?
A: no statistical difference

Reference: US10857167B2, “Use of oligosaccharide compositions to enhance weight gain” (Children's Hospital Medical Center, priority 2015, dated 2020)
